Reference: US9345691B2, “Beta-lactam compounds for enhancing T cell-mediated immune responses” (STEM CELL MEDICINE LTD., priority 2011, dated 2016)

Tests used:
[1] = Dissolution in aqueous solution; type: physicochemical
[2] = system: RMA cells (T cell lymphoma of mouse origin); test: RMA mouse tumor model; type: in vivo
Procedure: In the RMA mouse tumor model (T cell lymphoma of mouse origin), T cells are known to participate in tumor rejection, and thus augmenting T cell effects might enhance the animal's ability to reject the tumor implant. RMA cells were injected to C57BL/6J Ola Hsd mice (10^5 cells per mouse) (Chen et al. (1994) J Exp Med, 179:523-532). […] Tumor size was measured and recorded.
An additional experiment was carried out in the same experimental system, comparing 6-APA to clavulanic acid.

[3] = system: encephalitogenic BP10 T-cell line; test: Adoptive EAE by BP10 line stimulated in vitro with test substance; type: in vivo, rat
Source text: The ability of a compound to enhance T cell activity may be determined, for example, using an in vivo assay testing the effect of a given compound on the severity of adoptive (passive) EAE, namely, EAE which is induced by the injection of activated encephalitogenic T cell line to the model animal. In order to test a compound, the encephalitogenic T cells are activated in the presence of the compound prior to injection. An exemplary procedure is described in the Examples section hereinbelow.
Antigen-specific T-cell lines were established from lymph node cells that had been stimulated with myelin basic protein (MBP; 10 μg/ml) for 3 days in stimulation medium as described below. Following stimulation, the T-cell blasts were isolated on Lympho-prep (Nycomed Pharma, Oslo, Norway) and seeded in propagation medium. Propagation medium was identical to stimulation medium without autologous serum, but supplemented with fetal calf serum 10% and T-cell growth factors from the supernatant of Con A stimulated spleen cells 10% (Mor et al. (1990) J Clin Invest, 85, 1594-1598). Animals were injected intra-peritoneally with 10^7 MBP-stimulated T cells, following 6-8 cycles of in vitro stimulations. It is known that MBP-reactive lines undergo a reduction in pathogenicity after 6 or more in vitro stimulations. In some experiments the BP10 line was stimulated with phorbol myristate acetate (PMA; 50 ng/ml) and ionomycin (500 ng/ml) for 3 days in stimulation medium, without antigen-presenting cells.
Active EAE was induced by subcutaneous injection of 25 μg guinea-pig MBP (GpMBP) in complete Freund's adjuvant (CFA). CFA was prepared by adding 4 mg/ml Mycobacterium tuberculosis H37Ra (Difco, Mich.) to incomplete Freund's adjuvant (IFA). Adoptive EAE was transferred by intra-peritoneal injection of guinea-pig MBP-activated cells of the BP10 line as described in Mor et al. (1993) J Clin Invest, 92, 2199-2206. […] Clinical scoring was: +1, paralysis of tail; +1.5, paresis of posterior paws and ataxia; +2, paraplegia; +3, paralysis extending to thoracic spine; +4, a moribund state.
Treatment with cefuroxime in vivo could affect many different host agents involved in EAE or AA as well as influencing the rats' bacterial flora. To test whether the antibiotic might directly modify the behavior of effector T cells, an encephalitogenic T-cell line was stimulated in the presence or absence of cefuroxime in vitro. The weakly encephalitogenic BP10 line was used, and was stimulated for 3 days with MBP in the presence or absence of cefuroxime (50 μg/ml). The activated T cells were then washed to remove the antibiotic, the T cells were injected intra-peritoneally into naïve recipient rats (10^7 per rat), and EAE was scored. The BP10 line at later stimulations was used, when its pathogenic potential is reduced, allowing to detect both suppression and enhancement of disease. […] To rule out antigen presenting cells (APC) as the target of the beta-lactam antibiotic, the encephalitogenic BP10 line was stimulated without APC using PMA (50 ng/ml) and Ionomycin (500 ng/ml) in the presence or absence of cefuroxime.

NOD mice = test: Autoimmune diabetes in NOD mice; type: in vivo, mouse; settings: NOD mice at 5.7 months; SC weekly; ampicillin 1300 μg, ceftriaxone 675 μg per mouse
Procedure: NOD mice spontaneously develop diabetes mellitus similar to type I diabetes in humans. […] The mice were followed for the development of diabetes, marked by blood sugar above 300 mg/dl on 2 measurements.

[4] = system: experimental autoimmune encephalomyelitis (EAE) in rats; test: Actively induced EAE; type: in vivo, rat; settings: oral in drinking water from day 7 postinduction, daily dose 50 mg/kg, versus two control groups
[5] = target: T1, 67 kDa band in human T-cell lysates (Homo sapiens, UniProt P02768); test: Radioactive penicillin binding assay; settings: tritium-labeled, 10 and 20 μCi, 3 days with PMA and Ionomycin; CD4 and CD8 T cell lysates
T1 construct: endogenous in cells; host or cells: primary human CD4 or CD8 T cells from peripheral blood of healthy donors
Source text: Tritium labeled benzylpenicillin was obtained from Amersham (Buckinghamshire, UK; 250 μCi, 1 mCi/ml). Human CD4 or CD8 T cells were stimulated in 24 well plates, 5×10^6 cells per ml, with PMA and Ionomycin for 72 hr in the presence of 10 or 20 μCi of labeled penicillin. Following stimulation, the cells were collected, lysed and separated by SDS PAGE. The gels were fixed, treated with 1M sodium salicylate, and dried. The dried gels were exposed to x-ray film (BioMax MS film) for 14 days, with intensifying screen (BioMax TranScreen, Eastman Kodak Co., New Haven Conn., USA), and were developed.
To test whether beta-lactam antibiotics might affect T-cell behavior likewise by covalently binding a key T-cell protein, purified CD4 or CD8 human T cells were incubated with 10 and 20 μCi of tritium-labeled lactam benzylpenicillin (Amersham, Buckinghamshire, UK) for 3 days during stimulation with PMA and Ionomycin. The stimulated T cells were collected, washed, lysed and their proteins were subjected to SDS-PAGE separation. Dried gels were exposed in intensifying screens to Xray film for 2 weeks at −80° C. […] The intensity of the band was stronger at the 20 μCi concentration of penicillin.

albumin [6] = test: Pen 9 western blot of cell lines treated with penicillin; type: cell-based; settings: cell lines raised in vitro
[7] = free penicillin; cited from earlier work
albumin [8] = target: T2, albumin (Rattus norvegicus, UniProt P02770); test: Pen 9 detection of penicillin-albumin in vivo; settings: Lewis rats, 50 mg/rat intraperitoneally, 2 hours later
T2 construct: from tissue; host or cells: various tissues and serum of Lewis rats
Procedure: Rat tissues were ground with a tissue grinder in lysis buffer. The homogenate was centrifuged 14000 g for 15 min in 4° C. and the supernatant was used for western blotting. The protein concentration was determined using the Bio-Rad Dc protein assay (Bio-Rad laboratories, Hercules, Calif.). Following electrophoresis in SDS gel in a mini-gel apparatus (Bio-Rad), the gels were electro-transferred to nitrocellulose membranes (Schleicher and schuell, Dassel, Germany). The nitrocellulose membranes were washed with distilled water for 5 min, and then blocked for 60 min. using a blocking solution composed of 2% bovine serum albumin (Fraction V, Sigma, St. Louis Mo.), 2.5% milk powder (Bio-Rad), Tris (Sigma) pH 7.5 10 mM, NaCl 150 mM and 0.02% thimerosal (Sigma). After 3×10 min. washes in PBS/Tween 20 (PBS/T; 0.02%, Sigma), primary antibodies ( 1/1000) were incubated with the membranes in PBS/Tween for 60 min. Following another series of washes in PBS/T (3×10 min), the membranes were incubated with a secondary antibody (Peroxidase conjugated anti rabbit or anti mouse, IgG Jackson ImmunoResearch, West Grove, Calif.) at a 1/2500 dilution in 2% milk in PBS solution for 60 min. After another 3×10 min washes, the membranes were incubated with the ECL reagent (for 60 seconds) and exposed to X-ray film. […]

human CD3 T cells = test: Pen 9 western blot of antibiotic-treated human T cells; type: cell-based; settings: human T cells activated by mitogen in presence of the antibiotic
[9] = 17 days after tumor injection, versus PBS treated and non-injected mice
[10] = BP10 line, same doses as penicillin

T1 sequence (P02768 25-609): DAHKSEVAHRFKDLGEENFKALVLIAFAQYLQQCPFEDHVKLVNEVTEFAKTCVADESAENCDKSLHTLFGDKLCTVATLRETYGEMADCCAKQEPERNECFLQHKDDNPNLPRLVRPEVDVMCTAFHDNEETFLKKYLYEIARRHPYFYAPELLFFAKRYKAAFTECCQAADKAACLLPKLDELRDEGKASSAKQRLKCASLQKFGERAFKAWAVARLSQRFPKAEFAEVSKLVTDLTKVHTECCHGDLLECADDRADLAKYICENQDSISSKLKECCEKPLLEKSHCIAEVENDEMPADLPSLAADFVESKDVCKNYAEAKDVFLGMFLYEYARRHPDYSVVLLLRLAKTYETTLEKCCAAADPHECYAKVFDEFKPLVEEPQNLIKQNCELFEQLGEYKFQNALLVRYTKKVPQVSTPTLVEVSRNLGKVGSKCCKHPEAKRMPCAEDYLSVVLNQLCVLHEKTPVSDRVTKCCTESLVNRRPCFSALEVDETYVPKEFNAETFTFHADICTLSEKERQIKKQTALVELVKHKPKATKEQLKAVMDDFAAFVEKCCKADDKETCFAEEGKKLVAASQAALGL

## CC1(C)S[C@@H]2[C@H](N)C(=O)N2[C@H]1C(=O)O [6-APA, 6-aminopenicillanic acid]
[1]
  solubility in aqueous solution: difficult to dissolve in aqueous solution
[2]; [9]
  tumor size: smaller tumors
[2]; C57BL/6J mice, SC 2 μg/mouse 3 times per week, last two measurements, versus control mice
  tumor size: significantly smaller
[3]; [10]
  severity of adoptive EAE: EAE enhancing ability, similar to penicillin

## CO/N=C(\C(=O)N[C@@H]1C(=O)N2C(C(=O)O)=C(CSc3nc(=O)c(=O)[nH]n3C)CS[C@H]12)c1csc(N)n1 [ceftriaxone]
NOD mice
  incidence of diabetes: 60%
[3]; BP10 line stimulated 3 days with MBP in presence of 50 μg/ml, 10^7 cells IP per rat
  severity of adoptive EAE: enhanced EAE severity

## CO/N=C(\C(=O)N[C@@H]1C(=O)N2C(C(=O)OC(C)OC(C)=O)=C(COC(N)=O)CS[C@H]12)c1ccco1 (stereo partly shown) [cefuroxime axetil]
[4]
  severity of actively induced EAE: significantly more severe EAE

## O=C(O)[C@H]1/C(=C/CO)O[C@@H]2CC(=O)N21 [clavulanic acid]
[2]; [9]
  tumor size: smaller tumors
[3]; BP10 line stimulated with 25 μg/ml, 5 rats per group
  severity of adoptive EAE (pathogenicity of BP10 line): enhanced the pathogenicity of BP10 line

## CC1(C)S[C@@H]2[C@H](NC(=O)Cc3ccccc3)C(=O)N2[C@H]1C(=O)O [penicillin, benzylpenicillin]
[5]
  covalent binding to T-cell protein (radioactive band on SDS-PAGE): single major penicillin-protein radioactive band was detected at 67 kD
Albumin [6]
  penicillin-modified albumin band in cell line lysates: could be detected in mesenchymal stem cells, dendritic cells, Jurkat, MOLT4, FAO and CEM lines
[7]
  half-life: 42 min
Albumin [8]
  67 kD band (penicilloylated albumin) in tissue lysates: appears in all tissues examined and is most abundant in serum
Human CD3 T cells
  reactivity of Pen 9 antibody with lysates of treated T cells: reacted specifically to a major protein of the penicillin-treated T cells

## C[C@]1(Cn2ccnn2)[C@H](C(=O)O)N2C(=O)C[C@H]2S1(=O)=O [tazobactam]
[3]; [10]
  severity of adoptive EAE: EAE enhancing ability, similar to penicillin

B1: Penicillin-modified rat albumin: rat albumin modified by penicillin (conjugate, UniProt P02770 25-608, looked up)
Albumin: EAHKSEIAHRFKDLGEQHFKGLVLIAFSQYLQKCPYEEHIKLVQEVTDFAKTCVADENAENCDKSIHTLFGDKLCAIPKLRDNYGELADCCAKQEPERNECFLQHKDDNPNLPPFQRPEAEAMCTSFQENPTSFLGHYLHEVARRHPYFYAPELLYYAEKYNEVLTQCCTESDKAACLTPKLDAVKEKALVAAVRQRMKCSSMQRFGERAFKAWAVARMSQRFPNAEFAEITKLATDVTKINKECCHGDLLECADDRAELAKYMCENQATISSKLQACCDKPVLQKSQCLAEIEHDNIPADLPSIAADFVEDKEVCKNYAEAKDVFLGTFLYEYSRRHPDYSVSLLLRLAKKYEATLEKCCAEGDPPACYGTVLAEFQPLVEEPKNLVKTNCELYEKLGEYGFQNAVLVRYTQKAPQVSTPTLVEAARNLGRVGTKCCTLPEAQRLPCVEDYLSAILNRLCVLHEKTPVSEKVTKCCSGSLVERRPCFSALTVDETYVPKEFKAETFTFHSDICTLPDKEKQIKKQTALAELVKHKPKATEDQLKTVMGDFAQFVDKCCKAADKDNCFATEGPNLVARSKEALA
modifications: penicillin-modified
[3]; BP10 line stimulated 3 days with 5 mg/ml in stimulation medium
  severity of adoptive EAE (pathogenicity of BP10 line): could also enhance the encephalogenicity of the BP10 line
